Experimental data: paper PMC9030691, “Toxicokinetics of β-Amanitin in Mice and In Vitro Drug–Drug Interaction Potential” (Pharmaceutics, 2022)
“Also recorded” adds a separate entry of the source.

Key:
[1] = target: T1, OAT3 (Homo sapiens, UniProt Q8TCC7); test: Uptake of amanitins into HEK293-OAT3 cells; format: in vitro ADME; design: expressed in transfected cells; host or cells: HEK293; settings: 50 μM amanitin, 5 min, 37 °C, HBSS, 20 min preincubation, with and without probenecid, LC-HRMS, n = 3
T1 sequence (Q8TCC7 1-542): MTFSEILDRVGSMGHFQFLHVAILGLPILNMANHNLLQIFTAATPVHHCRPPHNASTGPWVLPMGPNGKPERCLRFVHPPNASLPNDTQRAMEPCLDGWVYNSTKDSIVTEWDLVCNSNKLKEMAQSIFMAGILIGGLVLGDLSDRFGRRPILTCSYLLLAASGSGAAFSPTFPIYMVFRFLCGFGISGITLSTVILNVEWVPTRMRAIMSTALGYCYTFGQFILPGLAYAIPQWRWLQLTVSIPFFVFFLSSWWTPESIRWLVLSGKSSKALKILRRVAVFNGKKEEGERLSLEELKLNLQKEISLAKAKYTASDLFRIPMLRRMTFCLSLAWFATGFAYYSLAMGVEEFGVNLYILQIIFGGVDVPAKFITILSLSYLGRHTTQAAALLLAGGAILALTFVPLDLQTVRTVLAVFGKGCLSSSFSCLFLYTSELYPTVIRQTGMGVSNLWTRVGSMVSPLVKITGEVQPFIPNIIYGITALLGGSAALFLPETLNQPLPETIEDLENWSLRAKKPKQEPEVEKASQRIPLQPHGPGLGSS
Protocol: (§1) HEK293 cells overexpressing OCT2, MATE2-K, OAT1, OAT3, OATP1B1, and OATP1B3 transporters and HEK293-control cells were maintained in a humidified atmosphere of 5% CO2 at 37 °C in DMEM supplemented with 10% FBS and 5 mM non-essential amino acids. In the case of HEK293-OATP1B1, -OATP1B3, and MATE2-K cells, 2 mM sodium butyrate was added to the culture medium to enhance transport activity. Cells were seeded at 2 × 10^5 cells/well in poly-D-lysine-coated 24-well plates. After 24 h, the growth medium was discarded, and attached cells were washed with HBSS and preincubated for 20 min in HBSS at 37 °C. Stock solutions of α- and β-amanitin and representative inhibitors of transporters were diluted in HBSS to make the final concentration: cimetidine 1 mM (for OCT2), cimetidine 100 μM (for MATE2-K), probenecid 100 μM (for OAT1 and OAT3), and rifampin 100 μM (for OATP1B1 and OATP1B3). Uptake of 50 μM α- and β-amanitin was measured in the absence and presence of representative inhibitors for 5 min at 37 °C. Plates were placed immediately on ice, and cells were then washed twice with 1 mL of ice-cold HBSS. Residual HBSS was removed thoroughly from the plates. Subsequently, 150 μL of 80% methanol containing IS was added to each sample well, and the cell plates were shaken gently for 20 min at 4 °C. The remaining steps were the same as described for plasma sample preparation.

[2] = oral administration of dried powder of Amanita exitialis 60 mg/kg; cited from earlier work
Protocol: In addition, bile drainage caused more than a 70% reduction in plasma concentration of α- and β-amanitin and reduced hepatic toxicity following the oral administration of dried powder of Amanita exitialis (60 mg/kg). […] However, the toxicokinetics and tissue distribution of β-amanitin (Figure 1) upon ex ...

[3] = target: MATE2-K (Homo sapiens, UniProt Q86VL8); test: Uptake of amanitins into HEK293-MATE2-K cells; format: in vitro ADME; design: expressed in transfected cells; host or cells: HEK293; settings: 50 μM amanitin, 5 min, 37 °C, HBSS, 20 min preincubation, with and without cimetidine 100 μM, LC-HRMS, n = 3
Sequence of MATE2-K (Q86VL8 1-566 isoform Q86VL8-3): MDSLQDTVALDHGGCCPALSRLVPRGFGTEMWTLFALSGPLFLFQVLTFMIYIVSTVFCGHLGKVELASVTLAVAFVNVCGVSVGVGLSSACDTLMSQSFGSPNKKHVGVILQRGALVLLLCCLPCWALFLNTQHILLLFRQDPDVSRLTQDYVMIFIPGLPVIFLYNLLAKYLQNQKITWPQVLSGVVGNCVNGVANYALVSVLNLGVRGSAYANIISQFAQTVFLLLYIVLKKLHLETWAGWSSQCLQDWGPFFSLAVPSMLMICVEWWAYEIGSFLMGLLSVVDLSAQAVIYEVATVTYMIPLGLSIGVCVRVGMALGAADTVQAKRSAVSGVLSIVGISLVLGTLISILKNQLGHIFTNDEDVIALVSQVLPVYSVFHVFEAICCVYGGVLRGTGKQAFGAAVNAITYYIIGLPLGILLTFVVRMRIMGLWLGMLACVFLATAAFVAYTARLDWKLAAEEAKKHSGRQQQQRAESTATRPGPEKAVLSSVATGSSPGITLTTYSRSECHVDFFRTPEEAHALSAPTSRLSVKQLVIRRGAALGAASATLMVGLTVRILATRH
Protocol: as §1

[4] = target: T2, OAT1 (Homo sapiens, UniProt Q4U2R8); test: Uptake of amanitins into HEK293-OAT1 cells; format: in vitro ADME; settings: 50 μM amanitin, 5 min, 37 °C, HBSS, 20 min preincubation, with and without probenecid, LC-HRMS, n = 3
T2 construct: expressed in transfected cells; host or cells: HEK293
T2 sequence (Q4U2R8 1-563): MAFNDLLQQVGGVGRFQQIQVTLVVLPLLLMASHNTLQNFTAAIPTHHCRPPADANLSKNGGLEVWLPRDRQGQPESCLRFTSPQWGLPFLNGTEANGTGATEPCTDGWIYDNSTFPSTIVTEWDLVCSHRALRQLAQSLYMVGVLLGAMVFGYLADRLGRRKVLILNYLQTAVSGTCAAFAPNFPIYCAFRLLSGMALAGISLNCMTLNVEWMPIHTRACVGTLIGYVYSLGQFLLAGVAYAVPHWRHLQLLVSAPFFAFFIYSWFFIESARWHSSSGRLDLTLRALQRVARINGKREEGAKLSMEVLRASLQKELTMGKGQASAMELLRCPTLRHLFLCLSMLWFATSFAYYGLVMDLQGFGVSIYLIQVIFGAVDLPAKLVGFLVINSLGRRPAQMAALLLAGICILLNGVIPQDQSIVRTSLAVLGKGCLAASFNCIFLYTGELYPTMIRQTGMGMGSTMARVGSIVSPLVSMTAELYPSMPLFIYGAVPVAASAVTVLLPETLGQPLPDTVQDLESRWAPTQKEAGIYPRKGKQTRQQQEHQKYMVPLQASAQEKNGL
Protocol: as §1

[5] = target: T3, OATP1B1 (Homo sapiens, UniProt Q9Y6L6); test: Uptake of amanitins into HEK293-OATP1B1 cells; format: in vitro ADME; settings: 50 μM amanitin, 5 min, 37 °C, HBSS, 20 min preincubation, with and without rifampin 100 μM, LC-HRMS, n = 3
T3 construct: expressed in transfected cells; host or cells: HEK293
T3 sequence (Q9Y6L6 whole entry): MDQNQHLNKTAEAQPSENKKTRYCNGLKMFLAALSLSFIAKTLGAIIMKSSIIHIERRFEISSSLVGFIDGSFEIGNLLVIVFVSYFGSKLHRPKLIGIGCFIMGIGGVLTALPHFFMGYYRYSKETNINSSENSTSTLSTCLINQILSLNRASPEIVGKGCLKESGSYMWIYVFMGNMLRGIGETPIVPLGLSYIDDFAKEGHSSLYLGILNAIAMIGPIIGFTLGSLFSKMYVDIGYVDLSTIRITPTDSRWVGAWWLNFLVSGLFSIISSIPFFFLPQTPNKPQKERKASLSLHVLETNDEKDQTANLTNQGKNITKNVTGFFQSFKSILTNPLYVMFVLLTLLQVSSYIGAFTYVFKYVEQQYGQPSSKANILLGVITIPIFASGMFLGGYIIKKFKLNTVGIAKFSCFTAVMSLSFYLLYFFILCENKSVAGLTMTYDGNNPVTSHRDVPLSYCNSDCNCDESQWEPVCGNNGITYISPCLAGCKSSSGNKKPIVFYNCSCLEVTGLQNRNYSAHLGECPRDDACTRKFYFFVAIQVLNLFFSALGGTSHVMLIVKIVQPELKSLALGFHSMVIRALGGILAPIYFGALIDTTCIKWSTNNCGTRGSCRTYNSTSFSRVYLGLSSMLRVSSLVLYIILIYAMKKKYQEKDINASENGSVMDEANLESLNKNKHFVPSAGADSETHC
Protocol: as §1

[6] = target: T4, OCT2 (Homo sapiens, UniProt O15244); test: Uptake of amanitins into HEK293-OCT2 cells; format: in vitro ADME; settings: 50 μM amanitin, 5 min, 37 °C, HBSS, 20 min preincubation, with and without cimetidine, LC-HRMS, n = 3
T4 construct: expressed in transfected cells; host or cells: HEK293
T4 sequence (O15244 1-555): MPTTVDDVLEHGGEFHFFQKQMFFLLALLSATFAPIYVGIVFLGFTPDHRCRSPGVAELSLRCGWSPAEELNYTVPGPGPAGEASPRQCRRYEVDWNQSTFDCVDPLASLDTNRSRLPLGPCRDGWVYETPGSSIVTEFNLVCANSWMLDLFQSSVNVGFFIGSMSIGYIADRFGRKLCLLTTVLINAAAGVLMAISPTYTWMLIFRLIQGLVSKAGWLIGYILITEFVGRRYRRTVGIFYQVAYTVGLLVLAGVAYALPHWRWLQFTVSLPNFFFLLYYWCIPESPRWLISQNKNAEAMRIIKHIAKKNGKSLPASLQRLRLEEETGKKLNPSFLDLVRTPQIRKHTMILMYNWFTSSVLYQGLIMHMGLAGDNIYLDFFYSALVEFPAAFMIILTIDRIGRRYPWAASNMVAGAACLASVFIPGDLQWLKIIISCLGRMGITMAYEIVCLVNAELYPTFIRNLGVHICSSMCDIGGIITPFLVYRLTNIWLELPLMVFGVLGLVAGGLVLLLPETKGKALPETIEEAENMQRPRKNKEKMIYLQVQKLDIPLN
Protocol: as §1

Compound	Uptake into HEK293-OAT3 cells compared with HEK293 control cells (transport substrate) [1]	Reduction in plasma concentration caused by bile drainage [2]	Uptake into HEK293-MATE2-K cells compared with HEK293 control cells (transport substrate) [3]	Uptake into HEK293-OAT1 cells compared with HEK293 control cells (transport substrate) [4]	Uptake into HEK293-OATP1B1 cells compared with HEK293 control cells (transport substrate) [5]	Uptake into HEK293-OCT2 cells compared with HEK293 control cells (transport substrate) [6]
CC[C@H](C)[C@@H]1NC(=O)CNC(=O)[C@@H]2Cc3c([nH]c4cc(O)ccc34)[S@+]([O-])C[C@H](NC(=O)CNC1=O)C(=O)N[C@@H](CC(=O)O)C(=O)N1C[C@H](O)C[C@H]1C(=O)N[C@@H]([C@@H](C)[C@@H](O)CO)C(=O)N2 [β-amanitin]	significantly greater uptake; also recorded: substrate	> 70%	not involved in the active transport	not involved in the active transport	significantly increased; also recorded: substrate	not involved in the active transport
α-amanitin [reference compound]	but not α-amanitin, showed significantly greater uptake	> 70%	not involved in the active transport	not involved in the active transport	significantly increased	not involved in the active transport
